Where two headings read alike, the source gives them in different places.
Key:
[1] = system: T lymphocytes (normal mouse spleen cells) stimulated with ConA; test: Mouse Spleen Cell ConA Blastogenesis Assay; type: cell-based, mouse (C57Bl/6); conditions: for inhibition at 0.01 µg/mL / inhibition at 0.1 µg/mL / inhibition at 1 µg/mL / inhibition at 2.5 µg/mL / inhibition at 10 µg/mL / inhibition at 25 µg/mL / inhibition at 100 µg/mL / inhibition at 300 µg/mL / inhibition at 750 µg/mL: Mus musculus, T-lymphocyte; for inhibition at 0.1 µg/mL: compound 0.1 ug/ml; for inhibition at 1 µg/mL: compound 1 ug/ml; for inhibition at 2.5 µg/mL: compound 2.5 ug/ml; for inhibition at 10 µg/mL: compound 10 ug/ml; for inhibition at 25 µg/mL: compound 25 ug/ml; for inhibition at 100 µg/mL: compound 100 ug/ml; for inhibition at 300 µg/mL: compound 300 ug/ml; for inhibition at 750 µg/mL: compound 750 ug/ml
From the text: It is well known that several plant lectins, when cultured in vitro with lymphocytes, stimulate cellular activation and proliferation. Concanavolin, (ConA) selectively stimulates the blastogenic response of T lymphocytes.
Six to 8 week old male C57Bl/6 mice were purchased from Harlan Sprague Dawley (Indianapolis, Ind.).
Spleens were removed and were homogenized to obtain a single cell suspension. Erythrocytes were lysed by hypotonic shock. Upon determination of the viability and concentration of the lymphoid cells, they were adjusted to 4×10^6 cells/ml in culture medium (RPMI-1640) supplemented with 10% fetal bovine serum; 100 ug/ml streptomycin; 100 U/ml penicillin, 0.2M hepes buffer; 5×10^-5 M 2-mercaptoethanol and 2 mM glutamine). seeded into microtiter plate wells at 2×10^5 cells/0.050 ml/well. To these cultures were added various doses of experimental compounds and ConA at a final concentration of 4 or 1 ug/ml. Control cultures consisted of cells, ConA and culture medium containing the vehicle, DMSO only. […] For the testing of the methyl 1,3-O-isopropylidene-6-O-n-heptyl-α-D-fructofuranoside compound indomethacin and NDGA were used as controls. All cultures were run in triplicate.
Solutions of compounds of the invention in DMSO were prepared and dilutions were made in culture medium. Assay concentrations were either: 1, 2.5, 10, 25, 100, 300 and 750 ug/ml or 0.001, 0.01, 0.1, 1, 2.5, 10, 25 and 100 ug/ml.
Cultures were incubated for 3 days at 37° C. in a humidified atmosphere of 5% of CO2 in air. For the last 18 hours of culture, 1 uCi of ^3 H-thymidine was also incubated in each well. The cells were precipitated by a multi-channel harvester. The amount of ^3 H-thymidine incorporated by the cultures, as a measure of cell proliferation, was measured in a liquid scintillation counter. The amount of radioactive incorporation is proportional to the amount of cellular proliferation in individual wells. The students T test was used to determine the significance of the difference between experimental and control values.

[2] = system: T cell proliferation in mouse spleen cell mixed lymphocyte cultures; test: Mixed Lymphocyte Reaction (MLR) assay; type: cell-based, mouse (Balb/c responder, C57B1/6 stimulator); conditions: for inhibition at 3 µM / inhibition at 10 µM / inhibition at 30 µM / inhibition at 100 µM / inhibition at 300 µM: Mus musculus, Lymphocyte, read-out: % Change From Control, MLR
From the text: The pharmacologic assays performed to determine the immunomodulatory effects of the experimental compounds in vitro include the Mixed Lymphocyte Reaction (MLR) and the ConA blastogenesis assay. These assays were used to determine the inhibitory effects of the compounds of the invention on T lymphocyte activation and proliferation. Since inflammation at the cellular level is characterized by T lymphocyte recruitment, activation and proliferation, these assays are appropriate to use as screens for novel compounds having therapeutic potential in the treatment of disorders in which inflammatory mechanisms are involved.
The MLR is a classical assay used to measure T cell function by studying the proliferative response of T cells which are activated in vitro by genetically disparate stimulator cells. This is accomplished by co-culturing spleen cells from two different strains of mice. Splenic T cell proliferation occurs as a result of cellular activation signals generated by the ongoing cellular interactions.
Balb/c mice were euthanised by cervical dislocation and their spleens removed. Single cell suspensions of the spleens were prepared in culture medium (hepes buffered RPMI-1640 supplemented with 10% fetal calf serum, 2mM glutamine, 500 units penicillin/ streptomycin, and 4×10^-5 M 2-mercaptoethanol) using a Teflon pestle. The cells were centrifuged at 1500 rpm and the pellets resuspended in ACT (0.15M tris, 0.14M ammonium chloride, pH 7.2) in order to lyse the red blood cells. After a 5 minute incubation in a 37 C. waterbath, the cells were resuspended in culture medium and counted. C57B1/6 spleen cells which were used as stimulator cells, were also prepared by this method. The stimulator cells were treated with 100 ug/ml of mitomycin c for 1 hour at 37 C. (to inhibit stimulatory cell proliferation) and were then washed 5 times in culture medium. The proliferative responses were measured by culturing 2.5×10^5 responder cells with 5×10^5 stimulatory cells in 96 well microtiter plates in the presence or absence of various doses of test compounds or vehicle (DMSO). Syngeneic control cultures using mitomycin c treated Balb/c spleen cells as stimulator cells were also run. All cultures were run in triplicate.
Solutions of compounds of the present invention in DMSO were prepared at a stock concentration of 120 Mm. Dilutions were made in culture medium to the following concentrations: 3, 10, 30, 100, and 300 uM. The vehicle (DMSO) was used as a negative control.
After incubation of for 5 days at 37 C. with 5% CO2, the amount of cell proliferation was measured by adding 20 ul of MTT (3-[4,5-dimethylthiazol-2-yl]-2,5diphenyl-tetrazolium bromide) (10 mg/ml in phosphate buffered saline) to each well. Plates were incubated for 4 hours at 37 C., after which 180 ul of 10% sodium dodecyl sulphate in phosphate buffered saline was added. After an overnight incubation, the optical density (OD) of each well was read on a Molecular Devices microplate reader at 570-650 nm. The results were determined by calculating the difference between the means of the allogeneic cultures and the means of the syngenic cultures for each test article concentration. Differences of the test article groups were compared to the control group and the percent change from the control was determined.

[3] = ConA 1 ug/ml, 0.01 ug/ml, read-out: % Change from Control (Table II)
[4] = ConA 1 ug/ml, compound 0.01 ug/ml, read-out: % change from control, ConA blastogenic response
[5] = ConA 1 ug/ml, read-out: % change from control, ConA blastogenic response
[6] = ConA 4 ug/ml, 0.01 ug/ml, read-out: % Change from Control (Table II)
[7] = ConA 4 ug/ml, compound 0.01 ug/ml, read-out: % change from control, ConA blastogenic response
[8] = ConA 4 ug/ml, read-out: % change from control, ConA blastogenic response

SMILES	inhibition at 1 µg/mL [1, 5] [%]	inhibition at 10 µg/mL [1, 5] [%]	inhibition at 25 µg/mL [1, 5] [%]	inhibition at 100 µg/mL [1, 5] [%]	inhibition at 1 µg/mL [1, 8] [%]	inhibition at 10 µg/mL [1, 8] [%]	inhibition at 25 µg/mL [1, 8] [%]	inhibition at 100 µg/mL [1, 8] [%]	Mean O.D. Allogenic ([2]; 3 um) [O.D.]	Mean O.D. Syngeneic ([2]; 3 um) [O.D.]	Mean O.D. Allogenic ([2]; 10 um) [O.D.]	Mean O.D. Syngeneic ([2]; 10 um) [O.D.]	Mean O.D. Allogenic ([2]; 30 um) [O.D.]	Mean O.D. Syngeneic ([2]; 30 um) [O.D.]	Mean O.D. Allogenic ([2]; 100 um) [O.D.]	Mean O.D. Syngeneic ([2]; 100 um) [O.D.]	Mean O.D. Allogenic ([2]; 300 um) [O.D.]	inhibition at 3 µM ([2]; 3 um) [%]	inhibition at 10 µM ([2]; 10 um) [%]	inhibition at 30 µM ([2]; 30 um) [%]	also measured
CCCCCCCOC[C@H]1O[C@](COCC)(OC)[C@@H](OCC)[C@@H]1O [Ib, methyl 1,3-di-O-ethyl-6-O-heptyl-α-D-fructofuranoside]	72	96	97	99	67	76	86	99	0.319	0.162	0.382	0.194	0.372	0.185	0.353	0.223	0.265	18	2	3	inhibition at 0.01 µg/mL [1, 3]: 55%; inhibition at 0.01 µg/mL [1, 4]: 57%; inhibition at 0.1 µg/mL [1, 5]: 66%; inhibition at 2.5 µg/mL [1, 5]: 92%; inhibition at 0.01 µg/mL [1, 6]: 25%; inhibition at 0.01 µg/mL [1, 7]: 35%; inhibition at 0.1 µg/mL [1, 8]: 45%; inhibition at 2.5 µg/mL [1, 8]: 68%; Mean O.D. Syngeneic ([2]; 300 um): 0.189 O.D.; inhibition at 100 µM ([2]; 100 um): 32%; inhibition at 300 µM ([2]; 300 um): 60%
CCCCC/C=C\COC[C@H]1O[C@](COC/C=C\CCCCC)(OC)[C@@H](O)[C@@H]1O [Ig, methyl 1,6-di-O-(cis,2-octenyl)-α-D-fructofuranoside]	4	87	84	99	5	73	77	100	0.412	0.155	0.421	0.182	0.399	0.157	0.419	0.173	0.474	-34	-24	-26	inhibition at 0.01 µg/mL [1, 3]: 3%; inhibition at 0.01 µg/mL [1, 4]: -10%; inhibition at 0.1 µg/mL [1, 5]: 10%; inhibition at 2.5 µg/mL [1, 5]: 11%; inhibition at 0.01 µg/mL [1, 6]: -7%; inhibition at 0.01 µg/mL [1, 7]: -12%; inhibition at 0.1 µg/mL [1, 8]: 9%; inhibition at 2.5 µg/mL [1, 8]: 20%; Mean O.D. Syngeneic ([2]; 300 um): 0.037 O.D.; inhibition at 100 µM ([2]; 100 um): -28%; inhibition at 300 µM ([2]; 300 um): -81%
CCCCCCCSC[C@H]1OC(C)(C)O[C@@H]2[C@H]3OC(C)(C)O[C@H]3O[C@@H]21 [IIIn, 1,2:3,5-Di-O-Isopropylidene-6-deoxy-6-thio-n-heptyl-β-D-glucofuranose]	4	29	27	84	-1	12	16	76	–	–	–	–	–	–	–	–	–	–	–	–	inhibition at 300 µg/mL [1, 5]: 99%; inhibition at 750 µg/mL [1, 5]: 99%; inhibition at 300 µg/mL [1, 8]: 99%; inhibition at 750 µg/mL [1, 8]: 98%; strong antiproliferative effect on ConA blastogenic response ([1]; concentration not given): greater than -50 % of control
CCCCCCCCCCCCCCCOCC(O)C1OC2OC(C)(C)OC2C1O [IIId, 1,2-O-Isopropylidene-6-O-pentadecyl-α-D-glucofuranose]	–	–	–	–	–	–	–	–	0.210	0.138	0.197	0.128	0.104	0.032	0.021	0.019	0.015	13	17	13	inhibition at 100 µM ([2]; 100 um): 98%

From patent US5298494A, “Monosaccharides having anti-proliferation and anti-inflammatory activity, compositions and uses thereof” (Greenwich Pharmaceuticals Incorporated, priority 1993, dated 1994)
